Legend:
[1] = test system: NK1R, NK2R and NK3R; conditions: cited from earlier work
[2] = test system: humans; conditions: cited from earlier work
[3] = test system: mice; test: Saccharin-conditioned taste avoidance; type: in vivo, mouse; conditions: 0.15% saccharin, s.c. 325 nmol kg^−1 EB1002 or 10 nmol kg^−1 semaglutide, n = 10 per group

| Compound | average weight loss [2] | further results |
| --- | --- | --- |
| neurokinin A (4–10)-S5K/L9mL/M10Nle |  | NK2R selectivity [1]: some degree of selectivity |
| retatrutide | up to 22.1% |  |
| CC[C@H](C)[C@H](NC(=O)[C@H](Cc1ccccc1)NC(=O)[C@H](CCC(=O)O)NC(=O)[C@H](CCCCNC(=O)COCCOCCNC(=O)COCCOCCNC(=O)CC[C@H](NC(=O)CCCCCCCCCCCCCCCCC(=O)O)C(=O)O)NC(=O)[C@H](C)NC(=O)[C@H](C)NC(=O)[C@H](CCC(N)=O)NC(=O)CNC(=O)[C@H](CCC(=O)O)NC(=O)[C@H](CC(C)C)NC(=O)[C@H](Cc1ccc(O)cc1)NC(=O)[C@H](CO)NC(=O)[C@H](CO)NC(=O)[C@@H](NC(=O)[C@H](CC(=O)O)NC(=O)[C@H](CO)NC(=O)[C@@H](NC(=O)[C@H](Cc1ccccc1)NC(=O)[C@@H](NC(=O)CNC(=O)[C@H](CCC(=O)O)NC(=O)C(C)(C)NC(=O)[C@@H](N)Cc1cnc[nH]1)[C@@H](C)O)[C@@H](C)O)C(C)C)C(=O)N[C@@H](C)C(=O)N[C@@H](Cc1c[nH]c2ccccc12)C(=O)N[C@@H](CC(C)C)C(=O)N[C@H](C(=O)N[C@@H](CCCNC(=N)N)C(=O)NCC(=O)N[C@@H](CCCNC(=N)N)C(=O)NCC(=O)O)C(C)C [semaglutide] |  | conditioned taste avoidance [3]: aversive |
| survodutide | up to 14.9% |  |

— PMC11602716 (Nature, 2024)
